The record followed here is patent US7815900B1, “Use of C3-C5 monosaccharides to protect keratinous fibers” (L'Oréal S.A., priority 2000, dated 2010).

A short description of assay [1]: DSC double peak area of relaxed hair after treatment. As to conditions: for Double Peak Area: relaxed ethnic hair, 10 min at 45° C. As for the experimental part: (§1) Kinky hair was relaxed using 2.5% sodium hydroxide (20 min at room temperature). The hair was thoroughly rinsed with water, and a treatment solution was applied for 10 min at 45° C. Each of the following treatment solutions were tested: a) 1% D-xylose, b) 5% D-xylose, and c) deionized water-control treatment.

A short description of assay [2]: Protein loss from hair in water. Particulars: bleached hair treated 5 times (1% solutions; Xylo-Biose Syrup 1.5%), then 1 h at 45° C. in deionized water. As for the experimental part:
XyloBiose Syrup is a raw material that contains about 15 wt % of xylobiose (dimer) and about 12 wt % of xylose. Xylo-Oligo 95P is a raw material containing about 22 wt % of xylobiose. Bleached hair was rinsed and blot-dried with a paper-towel. The treatment solution was then applied to the hair for 10 min at 45° C., and the hair was blow-dried. The procedure was repeated 5 times. Each of the following solutions was tested: • 1% D-Xylose • 1% Xylo-Oligo 95P • 1.5% XyloBiose Syrup • deionized water-control treatment
Following blow drying, a hair swatch (0.5 g) was immersed in 25 mL of deionized water for 1 h at 45° C. and the water was analyzed for the protein content. Id.

Assay [3] is described as follows: Tensile strength (work to break) of relaxed hair after treatment. Particulars: relaxed ethnic hair, 10 min at 45° C. As for the experimental part:
as §1

The nature of assay [4]: Hair chemical composition (lysine, arginine) after heat cycles. As to conditions: 1.0% solution. As for the experimental part: The repairing of the damaged hair by pentoses is further supported by changes in the hair chemical composition that are observed when the hair was treated with pentose solutions, followed by heat application. Specifically, the amounts of lysine and arginine decreased, as compared to the hair treated with water (Table 19). The change in the lysine/arginine content, in conjunction with the decreased extension to break, appears to indicate that some cross-linking processes occur when the hair is heated in the presence of pentoses.

Where [5] appears, read: bleached/permed hair after 12 cycles at 130° C.

Take `O=C[C@H](O)[C@@H](O)[C@H](O)CO` [D-Xylose]: the “Double Peak Area” value in assay [1] (1% solution) is recorded as 14.10 +/− 2.52 J/g hair; in assay [1] (5% solution) it was 21.35 +/− 19.02 J/g hair. The “protection of relaxed hair (α-structure, tensile strength, cuticle loss) compared to water, in words” value in assay [1] (relaxed kinky hair) is “protected”. In assay [2], the Protein loss is 200.9 +/− 36.5 microgram/g hair. For the same compound, the “Work to Break” value is listed as 749 +/− 151 J/m^2 in assay [3] (1% solution) and 1,200 +/− 222 J/m^2 in assay [3] (5% solution). Besides, the Arginine is reported as 8.0 +/− 0.1 wt % in assay [4] (bleached hair after 12 cycles at 130° C.) and 7.2 +/− 0.1 wt % in assay [4] (setting [5]). For the same compound, the Lysine in assay [4] (setting [5]) is on record as 1.6 +/− 0.1 wt %.
